Measured values from ChEMBL document CHEMBL4304811, “Development of a Water-Soluble Indolylmaleimide Derivative IM-93 Showing Dual Inhibition of Ferroptosis and NETosis” (ACS Med Chem Lett, 2019).

Columns and labels:
[1] = target: Serine/threonine-protein kinase Nek4 (Homo sapiens) (UniProt P51957); experiment: Binding affinity to wild-type human full length NEK4 (M1 to F841 residues) expressed in mammalian expression system assessed as residual binding level at 10 uM by Kinomescan method relative to control
[2] = target: Serine/threonine-protein kinase PLK2 (Homo sapiens) (UniProt Q9NYY3); experiment: Binding affinity to wild-type human partial length PLK2 (H58 to F354 residues) expressed in mammalian expression system assessed as residual binding level at 10 uM by Kinomescan method relative to control
[3] = target: Myosin light chain kinase family member 4 (Homo sapiens) (UniProt Q86YV6); experiment: Binding affinity to wild-type human partial length MYLK4 (V79 to S380 residues) expressed in bacterial expression system assessed as residual binding level at 10 uM by Kinomescan method relative to control
[4] = target: Serine/threonine-protein kinase 36 (Homo sapiens) (UniProt Q9NRP7); experiment: Binding affinity to wild-type human partial length STK36 (M1 to T271 residues) expressed in bacterial expression system assessed as residual binding level at 10 uM by Kinomescan method relative to control
[5] = target: Casein kinase I isoform alpha (Homo sapiens) (UniProt P48729); experiment: Binding affinity to wild-type human partial length CSNK1A1 (M1 to L450 residues) expressed in mammalian expression system assessed as residual binding level at 10 uM by Kinomescan method relative to control
[6] = tested on: Receptor-type tyrosine-protein kinase FLT3 (Homo sapiens), P36888 [R834Q]; experiment: Binding affinity to human partial length FLT3 R834Q mutant (V592 to Y969 residues) expressed in mammalian expression system assessed as residual binding level at 10 uM by Kinomescan method relative to control
[7] = target: Phosphatidylinositol 4-phosphate 5-kinase type-1 gamma (Homo sapiens) (UniProt O60331); experiment: Binding affinity to wild-type human partial length PIP5K1C (M1 to T668 residues) expressed in mammalian expression system assessed as residual binding level at 10 uM by Kinomescan method relative to control
[8] = target: Serine/threonine-protein kinase PLK3 (Homo sapiens) (UniProt Q9H4B4); experiment: Binding affinity to wild-type human partial length PLK3 (A42 to L334 residues) expressed in mammalian expression system assessed as residual binding level at 10 uM by Kinomescan method relative to control
[9] = target: Dual specificity tyrosine-phosphorylation-regulated kinase 1B (Homo sapiens) (UniProt Q9Y463); experiment: Binding affinity to wild-type human full length DYRK1B (M1 to S629 residues) expressed in bacterial expression system assessed as residual binding level at 10 uM by Kinomescan method relative to control
[10] = target: Death-associated protein kinase 1 (Homo sapiens) (UniProt P53355); experiment: Binding affinity to wild-type human partial length DAPK1 (M1 to F296 residues) expressed in bacterial expression system assessed as residual binding level at 10 uM by Kinomescan method relative to control
[11] = target: Serine/threonine-protein kinase 32C (Homo sapiens) (UniProt Q86UX6); experiment: Binding affinity to wild-type human partial length YANK3 (M68 to G486 residues) expressed in bacterial expression system assessed as residual binding level at 10 uM by Kinomescan method relative to control
[12] = target: Ephrin type-A receptor 4 (Homo sapiens) (UniProt P54764); experiment: Binding affinity to wild-type human partial length EPHA4 (T601 to R897 residues) expressed in bacterial expression system assessed as residual binding level at 10 uM by Kinomescan method relative to control
[13] = target: Serine/threonine-protein kinase ULK1 (Homo sapiens) (UniProt O75385); experiment: Binding affinity to wild-type human partial length ULK1 (M1 to T309 residues) expressed in mammalian expression system assessed as residual binding level at 10 uM by Kinomescan method relative to control
[14] = tested on: Tyrosine-protein kinase ABL1 (Homo sapiens), P00519 [F317I]; experiment: Binding affinity to human phosphorylated ABL1 F317I mutant (S229 to K512 residues) expressed in mammalian expression system assessed as residual binding level at 10 uM by Kinomescan method relative to control
[15] = target: Mitogen-activated protein kinase 12 (Homo sapiens) (UniProt P53778); experiment: Binding affinity to wild-type human full length p38-gamma (M1 to L367 residues) expressed in mammalian expression system assessed as residual binding level at 10 uM by Kinomescan method relative to control
[16] = target: Bone morphogenetic protein receptor type-1A (Homo sapiens) (UniProt P36894); experiment: Binding affinity to wild-type human partial length BMPR1A (Q214 to I532 residues) expressed in bacterial expression system assessed as residual binding level at 10 uM by Kinomescan method relative to control
[17] = target: Serine/threonine-protein kinase BRSK2 (Homo sapiens) (UniProt Q8IWQ3); experiment: Binding affinity to wild-type human full length BRSK2 (M1 to L674 residues) expressed in bacterial expression system assessed as residual binding level at 10 uM by Kinomescan method relative to control
[18] = target: Mitogen-activated protein kinase 8 (Homo sapiens) (UniProt P45983); experiment: Binding affinity to wild-type human full length JNK1 (M1 to Q384 residues) expressed in mammalian expression system assessed as residual binding level at 10 uM by Kinomescan method relative to control
[19] = target: Cyclin-dependent kinase 4/cyclin D1 (Homo sapiens) (UniProt P11802+P24385); experiment: Binding affinity to wild-type human full length CDK4/cyclinD1 (M1 to E303 residues) expressed in mammalian expression system assessed as residual binding level at 10 uM by Kinomescan method relative to control
[20] = target: MAP kinase-activated protein kinase 5 (Homo sapiens) (UniProt Q8IW41); experiment: Binding affinity to wild-type human partial length MAPKAPK5 (M1 to D322 residues) expressed in mammalian expression system assessed as residual binding level at 10 uM by Kinomescan method relative to control
[21] = target: Serine/threonine-protein kinase tousled-like 1 (Homo sapiens) (UniProt Q9UKI8); experiment: Binding affinity to wild-type human partial length TLK1 (K447 to A754 residues) expressed in bacterial expression system assessed as residual binding level at 10 uM by Kinomescan method relative to control
[22] = target: Rho-associated protein kinase 1 (Homo sapiens) (UniProt Q13464); experiment: Binding affinity to wild-type human partial length ROCK1 (M1 to R415 residues) expressed in mammalian expression system assessed as residual binding level at 10 uM by Kinomescan method relative to control
[23] = target: Ephrin type-A receptor 6 (Homo sapiens) (UniProt Q9UF33); experiment: Binding affinity to wild-type human partial length EPHA6 (Y700 to E1046 residues) expressed in bacterial expression system assessed as residual binding level at 10 uM by Kinomescan method relative to control
[24] = target: Serine/threonine-protein kinase 32B (Homo sapiens) (UniProt Q9NY57); experiment: Binding affinity to wild-type human full length YANK2 (M1 to S414 residues) expressed in bacterial expression system assessed as residual binding level at 10 uM by Kinomescan method relative to control

Ephrin type-A receptor 6 (Homo sapiens), sequence (Q9UF33 whole entry, the tested form may be a part): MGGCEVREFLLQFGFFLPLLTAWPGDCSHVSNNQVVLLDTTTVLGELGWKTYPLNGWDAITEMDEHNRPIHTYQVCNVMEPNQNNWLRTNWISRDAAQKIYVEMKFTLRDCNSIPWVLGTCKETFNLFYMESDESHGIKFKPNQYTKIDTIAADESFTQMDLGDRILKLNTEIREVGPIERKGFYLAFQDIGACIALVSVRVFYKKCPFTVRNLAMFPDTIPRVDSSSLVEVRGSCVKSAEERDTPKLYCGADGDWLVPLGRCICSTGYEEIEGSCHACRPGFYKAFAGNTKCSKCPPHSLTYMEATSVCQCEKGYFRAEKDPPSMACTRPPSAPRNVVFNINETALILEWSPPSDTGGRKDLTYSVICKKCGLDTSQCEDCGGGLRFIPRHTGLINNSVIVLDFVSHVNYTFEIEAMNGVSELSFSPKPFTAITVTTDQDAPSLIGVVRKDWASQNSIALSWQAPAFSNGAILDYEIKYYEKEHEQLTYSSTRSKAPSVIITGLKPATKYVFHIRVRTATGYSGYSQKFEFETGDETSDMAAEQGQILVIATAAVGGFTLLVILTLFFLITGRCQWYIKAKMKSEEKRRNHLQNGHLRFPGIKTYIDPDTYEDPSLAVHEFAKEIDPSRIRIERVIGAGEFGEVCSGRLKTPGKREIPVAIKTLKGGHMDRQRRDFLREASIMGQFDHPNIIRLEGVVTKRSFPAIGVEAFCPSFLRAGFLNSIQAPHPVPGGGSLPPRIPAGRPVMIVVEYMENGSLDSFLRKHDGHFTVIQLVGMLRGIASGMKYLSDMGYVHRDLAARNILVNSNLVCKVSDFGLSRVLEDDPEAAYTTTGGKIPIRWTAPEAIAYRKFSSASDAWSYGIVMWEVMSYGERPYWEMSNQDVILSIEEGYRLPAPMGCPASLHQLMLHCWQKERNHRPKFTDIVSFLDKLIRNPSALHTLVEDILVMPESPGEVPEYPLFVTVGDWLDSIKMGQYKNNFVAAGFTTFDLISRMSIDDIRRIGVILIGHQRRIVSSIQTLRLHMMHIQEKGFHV
Bone morphogenetic protein receptor type-1A (Homo sapiens), sequence (P36894 whole entry, the tested form may be a part): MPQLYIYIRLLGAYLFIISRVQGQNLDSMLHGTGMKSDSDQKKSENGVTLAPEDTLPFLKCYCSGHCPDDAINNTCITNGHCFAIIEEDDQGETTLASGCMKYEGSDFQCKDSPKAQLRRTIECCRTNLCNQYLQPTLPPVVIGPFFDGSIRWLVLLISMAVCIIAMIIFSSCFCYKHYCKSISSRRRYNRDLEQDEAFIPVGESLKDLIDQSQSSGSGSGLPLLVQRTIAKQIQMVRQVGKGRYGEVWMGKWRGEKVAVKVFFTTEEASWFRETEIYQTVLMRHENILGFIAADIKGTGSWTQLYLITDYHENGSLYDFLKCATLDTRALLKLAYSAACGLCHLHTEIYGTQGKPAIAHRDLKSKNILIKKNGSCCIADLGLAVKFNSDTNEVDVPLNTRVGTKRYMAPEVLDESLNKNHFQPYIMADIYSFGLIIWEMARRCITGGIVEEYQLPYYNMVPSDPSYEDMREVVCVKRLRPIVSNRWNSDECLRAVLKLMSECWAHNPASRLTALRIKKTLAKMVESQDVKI
Mitogen-activated protein kinase 8 (Homo sapiens), sequence (P45983 whole entry, the tested form may be a part): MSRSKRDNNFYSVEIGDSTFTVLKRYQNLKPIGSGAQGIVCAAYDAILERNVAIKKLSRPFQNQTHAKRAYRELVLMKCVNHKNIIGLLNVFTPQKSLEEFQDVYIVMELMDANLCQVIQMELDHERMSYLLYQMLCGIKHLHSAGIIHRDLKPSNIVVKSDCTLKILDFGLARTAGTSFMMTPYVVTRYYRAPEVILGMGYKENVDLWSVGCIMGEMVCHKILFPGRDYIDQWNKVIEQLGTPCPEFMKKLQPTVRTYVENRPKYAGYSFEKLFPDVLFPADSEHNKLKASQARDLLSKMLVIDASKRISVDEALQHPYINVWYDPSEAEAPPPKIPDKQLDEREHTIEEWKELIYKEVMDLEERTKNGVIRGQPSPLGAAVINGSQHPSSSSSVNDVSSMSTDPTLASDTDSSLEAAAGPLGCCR
Phosphatidylinositol 4-phosphate 5-kinase type-1 gamma (Homo sapiens), sequence (O60331 whole entry, the tested form may be a part): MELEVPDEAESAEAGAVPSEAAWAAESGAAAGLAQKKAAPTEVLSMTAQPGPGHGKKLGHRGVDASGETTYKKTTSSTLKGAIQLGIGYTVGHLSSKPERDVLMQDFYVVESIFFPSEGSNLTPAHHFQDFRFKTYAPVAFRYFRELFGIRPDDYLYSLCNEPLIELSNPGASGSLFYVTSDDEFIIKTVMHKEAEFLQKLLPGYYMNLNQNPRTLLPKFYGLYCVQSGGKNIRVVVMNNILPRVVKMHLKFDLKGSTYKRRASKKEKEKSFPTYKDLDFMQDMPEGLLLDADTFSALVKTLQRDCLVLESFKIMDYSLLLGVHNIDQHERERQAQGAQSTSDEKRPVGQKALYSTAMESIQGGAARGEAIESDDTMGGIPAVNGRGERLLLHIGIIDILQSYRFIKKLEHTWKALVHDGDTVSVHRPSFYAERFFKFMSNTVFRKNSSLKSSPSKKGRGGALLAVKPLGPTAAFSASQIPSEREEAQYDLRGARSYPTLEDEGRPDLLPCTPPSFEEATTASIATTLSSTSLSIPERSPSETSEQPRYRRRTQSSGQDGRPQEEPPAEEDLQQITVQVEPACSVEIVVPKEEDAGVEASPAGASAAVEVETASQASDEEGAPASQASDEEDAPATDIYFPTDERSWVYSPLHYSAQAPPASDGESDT
Serine/threonine-protein kinase tousled-like 1 (Homo sapiens), sequence (Q9UKI8 whole entry, the tested form may be a part): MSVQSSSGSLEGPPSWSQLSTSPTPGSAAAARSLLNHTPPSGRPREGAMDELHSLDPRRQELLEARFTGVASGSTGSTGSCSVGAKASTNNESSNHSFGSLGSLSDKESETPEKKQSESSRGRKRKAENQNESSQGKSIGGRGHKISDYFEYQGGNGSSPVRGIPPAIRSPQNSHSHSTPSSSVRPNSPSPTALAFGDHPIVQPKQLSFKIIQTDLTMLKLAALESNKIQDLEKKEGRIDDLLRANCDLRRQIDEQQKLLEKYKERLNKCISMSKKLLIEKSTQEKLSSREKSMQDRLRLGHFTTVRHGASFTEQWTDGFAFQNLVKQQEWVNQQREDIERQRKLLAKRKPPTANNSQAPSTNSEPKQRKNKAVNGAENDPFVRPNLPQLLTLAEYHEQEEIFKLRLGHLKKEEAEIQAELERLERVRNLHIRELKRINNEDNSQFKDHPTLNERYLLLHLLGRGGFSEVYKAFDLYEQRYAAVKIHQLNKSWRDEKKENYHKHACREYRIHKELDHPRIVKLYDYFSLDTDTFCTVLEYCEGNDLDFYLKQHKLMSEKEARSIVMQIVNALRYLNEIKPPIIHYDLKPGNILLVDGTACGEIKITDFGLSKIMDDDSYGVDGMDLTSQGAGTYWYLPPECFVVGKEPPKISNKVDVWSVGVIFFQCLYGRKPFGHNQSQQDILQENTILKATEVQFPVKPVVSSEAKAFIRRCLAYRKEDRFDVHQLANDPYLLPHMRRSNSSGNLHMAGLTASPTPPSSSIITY
Serine/threonine-protein kinase BRSK2 (Homo sapiens), sequence (Q8IWQ3 whole entry, the tested form may be a part): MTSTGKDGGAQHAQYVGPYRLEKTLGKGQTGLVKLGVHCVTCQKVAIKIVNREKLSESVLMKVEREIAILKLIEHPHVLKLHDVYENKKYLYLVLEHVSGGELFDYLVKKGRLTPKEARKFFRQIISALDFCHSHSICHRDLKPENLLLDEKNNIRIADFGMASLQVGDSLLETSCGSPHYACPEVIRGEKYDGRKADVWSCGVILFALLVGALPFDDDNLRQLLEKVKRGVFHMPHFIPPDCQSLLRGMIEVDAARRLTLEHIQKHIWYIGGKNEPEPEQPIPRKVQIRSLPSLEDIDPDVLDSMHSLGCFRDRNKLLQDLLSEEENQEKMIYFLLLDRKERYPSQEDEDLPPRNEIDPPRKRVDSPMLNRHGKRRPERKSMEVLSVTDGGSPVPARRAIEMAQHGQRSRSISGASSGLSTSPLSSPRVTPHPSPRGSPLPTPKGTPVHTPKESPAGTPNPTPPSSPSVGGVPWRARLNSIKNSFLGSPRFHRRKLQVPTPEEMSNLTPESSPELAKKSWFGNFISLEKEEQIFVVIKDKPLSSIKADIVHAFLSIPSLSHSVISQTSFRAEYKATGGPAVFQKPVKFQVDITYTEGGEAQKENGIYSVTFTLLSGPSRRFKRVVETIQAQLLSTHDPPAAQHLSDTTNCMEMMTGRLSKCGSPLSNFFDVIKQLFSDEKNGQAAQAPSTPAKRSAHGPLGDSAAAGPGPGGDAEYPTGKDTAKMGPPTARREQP
Serine/threonine-protein kinase Nek4 (Homo sapiens), sequence (P51957 whole entry, looked up, the tested form may be a part): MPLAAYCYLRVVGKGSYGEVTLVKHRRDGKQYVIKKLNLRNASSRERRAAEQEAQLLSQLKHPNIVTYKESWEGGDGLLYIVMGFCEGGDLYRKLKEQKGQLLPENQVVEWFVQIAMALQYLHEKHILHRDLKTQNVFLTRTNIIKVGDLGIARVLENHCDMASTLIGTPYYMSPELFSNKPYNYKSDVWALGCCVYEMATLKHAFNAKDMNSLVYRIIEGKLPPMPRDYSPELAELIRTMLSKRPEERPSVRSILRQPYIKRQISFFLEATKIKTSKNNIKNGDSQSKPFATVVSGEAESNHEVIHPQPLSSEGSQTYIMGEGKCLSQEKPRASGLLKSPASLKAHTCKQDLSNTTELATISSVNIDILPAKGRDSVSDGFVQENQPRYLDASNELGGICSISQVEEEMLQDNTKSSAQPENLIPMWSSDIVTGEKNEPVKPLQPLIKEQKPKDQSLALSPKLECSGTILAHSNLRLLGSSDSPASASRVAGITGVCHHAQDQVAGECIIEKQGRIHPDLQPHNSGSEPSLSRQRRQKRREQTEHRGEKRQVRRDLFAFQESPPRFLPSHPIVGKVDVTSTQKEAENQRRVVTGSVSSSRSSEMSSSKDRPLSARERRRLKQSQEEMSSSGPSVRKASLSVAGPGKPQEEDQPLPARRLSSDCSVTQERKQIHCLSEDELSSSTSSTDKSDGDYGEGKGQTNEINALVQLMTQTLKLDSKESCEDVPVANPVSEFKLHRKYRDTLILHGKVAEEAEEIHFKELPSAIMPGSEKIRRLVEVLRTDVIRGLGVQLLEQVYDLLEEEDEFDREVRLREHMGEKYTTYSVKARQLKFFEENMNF

For CC(C)N1C(=O)C(NCCCN(C)C)=C(c2cn(C)c3ccccc23)C1=O.Cl, the Activity [1] was 96%, the Activity [2] was 97% and the Activity [3] was 100%. It also gave an Activity [4] of 98%, an Activity [5] of 88% and an Activity [6] of 100%. For the same molecule, the Activity [7] was 96%, the Activity [8] was 100% and the Activity [9] was 93%. The Activity [10] was 100%, the Activity [11] was 98% and the Activity [12] was 100%. The Activity [13] was 79%, the Activity [14] was 87% and the Activity [15] was 72%. For the same molecule, the Activity [16] was 100%, the Activity [17] was 86% and the Activity [18] was 91%. For the same molecule, the Activity [19] was 88%, the Activity [20] was 71% and the Activity [21] was 100%. It also gave an Activity [22] of 96%, an Activity [23] of 100% and an Activity [24] of 99%.
